Test results reported in US20250134890A1, “ANTIMALARIAL HEXAHYDROPYRIMIDINE ANALOGUES” (UCB BIOPHARMA SRL, priority 2022, published 2025).
Where a name gives a salt, the structure may show the parent alone.

Tested on: Plasmodium falciparum: 3D7 strain
Assay: P. falciparum 3D7 asexual blood stage assay (SYBR green readout)
Assay type: cell-based
Conditions: Plasmodium falciparum, 3D7, Erythrocyte, 72 h, P. falciparum 3D7 in human erythrocytes, 72 h incubation, SYBR green fluorescence
Procedure, shortened: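 3D7-infected erythrocytes (5% haematocrit, 0.5% parasitaemia) were exposed 72 h at 37 °C under 1% O2/3% CO2 to a 20-point titration (50,000-15 nM final, 0.5% DMSO). Parasite DNA was read by SYBR green fluorescence after overnight lysis. Percent inhibition was set against mefloquine and DMSO, and EC50 came from a biphasic two-site fit.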

SMILES | IC50 [nM]
C[C@H]1C[C@@H](N2C(=N)N[C@](C)(c3cccc(-c4cccc(N=S(C)(C)=O)c4)c3Cl)CC2=O)CCC1(F)F [Example 20, (6S)-6-[2-Chloro-3-(3-{[(dimethyl)-(oxo)-λ^6-sulfanylidene]amino}-phenyl)phenyl]-3-[(1S,3S)-4,4-difluoro-3-methylcyclohexyl]-2-imino-6-methylhexahydro-pyrimidin-4-one hydrochloride] | 88
C[C@H]1C[C@@H](N2C(=N)N[C@](C)(c3cccc(-c4cccc(N5CCOCC5)c4)c3Cl)CC2=O)CCO1 [Example 29, (6S)-6-{2-Chloro-3-[3-(morpholin-4-yl)phenyl]phenyl}-2-imino-6-methyl-3-[(2S,4S)-2-methyl-tetrahydropyran-4-yl]hexahydro-pyrimidin-4-one trifluoroacetic acid salt] | 65
C[C@H]1C[C@@H](N2C(=N)N[C@](C)(c3cccc(-c4cc5cccnc5n4C)c3Cl)CC2=O)CCO1 [Example 30, (6S)-6-[2-Chloro-3-(1-methyl-pyrrolo[2,3-b]pyridin-2-yl)phenyl]-2-imino-6-methyl-3-[(2S,4S)-2-methyltetrahydropyran-4-yl]-hexahydropyrimidin-4-one trifluoroacetic acid salt] | 199
C[C@H]1C[C@@H](N2C(=N)N[C@](C)(c3cccc(-c4ccc(C5CC5)nc4)c3Cl)CC2=O)CCO1 [Example 31, (6S)-6-[2-Chloro-3-(6-cyclopropyl-pyridin-3-yl)phenyl]-2-imino-6-methyl-3-[(2S,4S)-2-methyl-tetrahydropyran-4-yl]hexahydro-pyrimidin-4-one trifluoroacetic acid salt] | 180
Cc1cc(-c2cccc([C@]3(C)CC(=O)N([C@H]4CCO[C@@H](C)C4)C(=N)N3)c2Cl)on1 [Example 32, (6S)-6-[2-Chloro-3-(3-methyl-isoxazol-5-yl)phenyl]-2-imino-6-methyl-3-[(2S,4S)-2-methyl-tetrahydropyran-4-yl]hexahydro-pyrimidin-4-one trifluoroacetic acid salt] | 50
C[C@H]1C[C@@H](N2C(=N)N[C@](C)(c3cccc(-c4ccnnc4)c3Cl)CC2=O)CCO1 [Example 33, (6S)-6-[2-Chloro-3-(pyridazin-4-yl)phenyl]-2-imino-6-methyl-3-[(2S,4S)-2-methyltetrahydropyran-4-yl]hexahydropyrimidin-4-one trifluoroacetic acid salt] | 186
C[C@H]1C[C@@H](N2C(=N)N[C@](C)(c3cccc(-c4ccn(C)c(=O)c4)c3Cl)CC2=O)CCO1 [Example 34, (6S)-6-[2-Chloro-3-(1-methyl-2-oxopyridin-4-yl)phenyl]-2-imino-6-methyl-3-[(2S,4S)-2-methyl-tetrahydropyran-4-yl]hexahydro-pyrimidin-4-one trifluoroacetic acid salt] | 286
C[C@H]1C[C@@H](N2C(=N)N[C@](C)(c3cccc(-c4cccc5ccccc45)c3Cl)CC2=O)CCO1 [Example 35, (6S)-6-[2-Chloro-3-(naphth-1-yl)-phenyl]-2-imino-6-methyl-3-[(2S,4S)-2-methyltetrahydropyran-4-yl]hexahydropyrimidin-4-one trifluoroacetic acid salt] | 355
CC(C)c1ccccc1-c1cccc([C@]2(C)CC(=O)N([C@H]3CCO[C@@H](C)C3)C(=N)N2)c1Cl [Example 36, (6S)-6-[2-Chloro-3-(2-isopropyl-phenyl)phenyl]-2-imino-6-methyl-3-[(2S,4S)-2-methyltetrahydro-pyran-4-yl]hexahydropyrimidin-4-one trifluoroacetic acid salt] | 95
C[C@H]1C[C@@H](N2C(=N)N[C@](C)(c3cccc(-c4ccccc4C(F)(F)F)c3Cl)CC2=O)CCO1 [Example 37, (6S)-6-{2-Chloro-3-[2-(trifluoro-methyl)phenyl]phenyl}-2-imino-6-methyl-3-[(2S,4S)-2-methyl-tetrahydropyran-4-yl]hexahydro-pyrimidin-4-one trifluoroacetic acid salt] | 67
C[C@H]1C[C@@H](N2C(=N)N[C@](C)(c3cccc(-c4ccc(F)c(F)c4)c3Cl)CC2=O)CCO1 [Example 38, (6S)-6-[2-Chloro-3-(3,4-difluoro-phenyl)phenyl]-2-imino-6-methyl-3-[(2S,4S)-2-methyltetrahydro-pyran-4-yl]hexahydropyrimidin-4-one trifluoroacetic acid salt] | 135
C[C@H]1C[C@@H](N2C(=N)N[C@](C)(c3cccc(-c4ccncc4)c3Cl)CC2=O)CCO1 [Example 39, (6S)-6-[2-Chloro-3-(pyridin-4-yl)-phenyl]-2-imino-6-methyl-3-[(2S,4S)-2-methyltetrahydropyran-4-yl]hexahydropyrimidin-4-one trifluoroacetic acid salt] | 269
C[C@H]1C[C@@H](N2C(=N)N[C@](C)(c3cccc(-c4cccc(C#N)c4)c3Cl)CC2=O)CCO1 [Example 40, 3-(2-Chloro-3-{(4S)-2-imino-4-methyl-1-[(2S,4S)-2-methyl-tetrahydropyran-4-yl]-6-oxo-hexahydropyrimidin-4-yl}phenyl)-benzonitrile trifluoroacetic acid salt] | 50
C[C@H]1C[C@@H](N2C(=N)N[C@](C)(c3cccc(-c4cncnc4)c3Cl)CC2=O)CCO1 [Example 41, (6S)-6-[2-Chloro-3-(pyrimidin-5-yl)phenyl]-2-imino-6-methyl-3-[(2S,4S)-2-methyltetrahydropyran-4-yl]hexahydropyrimidin-4-one trifluoroacetic acid salt] | 145
C[C@H]1C[C@@H](N2C(=N)N[C@](C)(c3cccc(-c4cc(F)ccc4F)c3Cl)CC2=O)CCO1 [Example 42, (6S)-6-[2-Chloro-3-(2,5-difluoro-phenyl)phenyl]-2-imino-6-methyl-3-[(2S,4S)-2-methyltetrahydro-pyran-4-yl]hexahydropyrimidin-4-one trifluoroacetic acid salt] | 88
COc1ccc(-c2cccc([C@]3(C)CC(=O)N([C@H]4CCO[C@@H](C)C4)C(=N)N3)c2Cl)cn1 [Example 43, (6S)-6-[2-Chloro-3-(6-methoxy-pyridin-3-yl)phenyl]-2-imino-6-methyl-3-[(2S,4S)-2-methyl-tetrahydropyran-4-yl]hexahydro-pyrimidin-4-one trifluoroacetic acid salt] | 94
C[C@H]1C[C@@H](N2C(=N)N[C@](C)(c3cccc(-c4cc(F)cc(F)c4)c3Cl)CC2=O)CCO1 [Example 44, (6S)-6-[2-Chloro-3-(3,5-difluoro-phenyl)phenyl]-2-imino-6-methyl-3-[(2S,4S)-2-methyltetrahydro-pyran-4-yl]hexahydropyrimidin-4-one trifluoroacetic acid salt] | 103
C[C@H]1C[C@@H](N2C(=N)N[C@](C)(c3cccc(-c4ccn[nH]4)c3Cl)CC2=O)CCO1 [Example 45, (6S)-6-[2-Chloro-3-(1H-pyrazol-5-yl)phenyl]-2-imino-6-methyl-3-[(2S,4S)-2-methyltetrahydropyran-4-yl]hexahydropyrimidin-4-one trifluoroacetic acid salt] | 12
C[C@H]1C[C@@H](N2C(=N)N[C@](C)(c3cccc(-c4ccccc4Cl)c3Cl)CC2=O)CCO1 [Example 46, (6S)-6-[2-Chloro-3-(2-chloro-phenyl)phenyl]-2-imino-6-methyl-3-[(2S,4S)-2-methyltetrahydro-pyran-4-yl]hexahydropyrimidin-4-one trifluoroacetic acid salt] | 105
C[C@H]1C[C@@H](N2C(=N)N[C@](C)(c3cccc(-c4c(F)cccc4F)c3Cl)CC2=O)CCO1 [Example 47, (6S)-6-[2-Chloro-3-(2,6-difluoro-phenyl)phenyl]-2-imino-6-methyl-3-[(2S,4S)-2-methyltetrahydro-pyran-4-yl]hexahydropyrimidin-4-one trifluoroacetic acid salt] | 44
C[C@H]1C[C@@H](N2C(=N)N[C@](C)(c3cccc(-c4cccc(C(F)(F)F)c4)c3Cl)CC2=O)CCO1 [Example 48, (6S)-6-{2-Chloro-3-[3-(trifluoro-methyl)phenyl]phenyl}-2-imino-6-methyl-3-[(2S,4S)-2-methyl-tetrahydropyran-4-yl]hexahydro-pyrimidin-4-one trifluoroacetic acid salt] | 66
C[C@H]1C[C@@H](N2C(=N)N[C@](C)(c3cccc(-c4cccnc4)c3Cl)CC2=O)CCO1 [Example 49, (6S)-6-[2-Chloro-3-(pyridin-3-yl)-phenyl]-2-imino-6-methyl-3-[(2S,4S)-2-methyltetrahydropyran-4-yl]hexahydropyrimidin-4-one trifluoroacetic acid salt] | 30
C[C@H]1C[C@@H](N2C(=N)N[C@](C)(c3cccc(-c4cccc(F)c4F)c3Cl)CC2=O)CCO1 [Example 50, (6S)-6-[2-Chloro-3-(2,3-difluoro-phenyl)phenyl]-2-imino-6-methyl-3-[(2S,4S)-2-methyltetrahydro-pyran-4-yl]hexahydropyrimidin-4-one trifluoroacetic acid salt] | 84
C[C@H]1C[C@@H](N2C(=N)N[C@](C)(c3cccc(-c4ccc(F)cc4F)c3Cl)CC2=O)CCO1 [Example 51, (6S)-6-[2-Chloro-3-(2,4-difluoro-phenyl)phenyl]-2-imino-6-methyl-3-[(2S,4S)-2-methyltetrahydro-pyran-4-yl]hexahydropyrimidin-4-one trifluoroacetic acid salt] | 95
Cc1cc(-c2cccc([C@]3(C)CC(=O)N([C@H]4CCO[C@@H](C)C4)C(=N)N3)c2Cl)n(C)n1 [Example 52, (6S)-6-[2-Chloro-3-(2,5-dimethyl-pyrazol-3-yl)phenyl]-2-imino-6-methyl-3-[(2S,4S)-2-methyl-tetrahydropyran-4-yl]hexahydro-pyrimidin-4-one trifluoroacetic acid salt] | 438
